± gives the expanded uncertainty stated by the source.

The conditions of the data set: 298.15 K; 101.33 kPa; Liquid.
For `C=C1CC[C@H]2C[C@@H]1C2(C)C` [(1S,5S)-6,6-dimethyl-2-methylenebicyclo[3.1.1]heptane], the mass density (in general, the mass of a sample divided by its volume) was found to be 866.84 ± 0.62 kg/m3.

`C=C(C)[C@H]1CC=C(C)CC1` [(R)-1-methyl-4-(1-methylethenyl)cyclohexene]: the mass density is reported as 837.31 ± 1.3 kg/m3.

Consider `CC1=CC[C@H]2C[C@@H]1C2(C)C` [(S)-2-pinene], for which the mass density came out at 853.88 ± 0.63 kg/m3.

In the case of `CCCCCCCCCCCC` [dodecane], the mass density was determined as 745.41 ± 0.78 kg/m3.

As to `CO` [methanol], the mass density is reported as 786.62 ± 0.31 kg/m3.

Consider `Cc1ccccc1` [toluene], for which the mass density amounted to 862.35 ± 0.24 kg/m3.

Source of the values: the NIST ThermoML archive (doi:10.1021/je0502391).
